Data set [1] relates to methamphetamine. Kind of data set: Methamphetamine reversal assay. It is filed as in vivo, mice.
For data set [2], the system named is muricidal behavior. Kind of data set: Anti-muricide assay. It is filed as in vivo, Male Long Evans rats. The conditions noted are these: Rattus norvegicus, ip; rats, intraperitoneal injection, mouse presented at 30 and 60 minutes; dosage at which 50% of the tested rats do not kill mice. The protocol:
Anti-muricide assay: Male Long Evans rats weighing 225-250 g are housed I rat per cage, and killers (rats show an instinctive mouse killing behavior (muricide)) are selected initially after being deprived of food for approximately 66 hours. This is the only time the rats are deprived of food. Food, ad libitum, is-avaiable on the cage floor since food bins are not practical because they afford a hiding place for mice. The rats are tested for muricidal behavior the following day and once a week thereafter; non-killers are always eliminated. A non-killer is a rat which fails to kill a mouse placed into his cage within 5 minutes. Drugs are tested in the afternoon of the day following this weekly check for persistance of the killing behavior. Since the rats are not deprived of food or water and rarely attempt to eat the mouse, this behavior is not motivated by hunger. Four weeks after the first test for killing, the rats are injected, i.p., with placebo and then tested 30/60 minutes after the injection. […] Only rats that consistantly kill mice placed in their home cages are used for drug testing. Every treatment-group is comprised of 5 rats. […] Blockade of muricidal behavior is determined by observing the number of surviving mice 5 minutes after being introduced into the rat cages.

Data set [3] is described as follows: Acute oral toxicity (LD50). Conditions: mouse, in vivo; oral dose in mice.

Structures can show the parent of a compound that is named as a salt. Bounds are passed on as bounds.

Turning to `OCCN1CCN(CCCN2c3ccccc3Sc3ccc(Cl)cc32)CC1` [perphenazine, reference compound], in data set [1] (control, perphenazine at 1 mg/kg, aggregated mice, methamphetamine 15 mg/kg i.p.), the “protection from methamphetamine lethality” value is on record as “complete protection”.
On to `CN1CCc2cc(Cl)c(OC(=O)N(C)C)cc2[C@H](c2ccccc2)C1` [(S)-7-chloro-8-dimethylaminocarbonyloxy-3-methyl-1-phenyl-2,3,4,5-tetrahydro-lH-3-benzazepine hydrochloride], for which the median effective dose (ED50) in data set [2] was 5.7 mg/kg; in data set [1] (Mus musculus, po, 4 h), 1.2 mg/kg. The compound also gave an LD50 in data set [3] of over 300 mg/kg.
